In patent EP0606463B1, “NEUROMEDIN B RECEPTOR ANTAGONISTS” (The Administrators of The Tulane Educational Fund, priority 1992, dated 1994):
Where a SMILES comes first, the peptide text is derived from it. Bridges are numbered along the chain shown (N, C = ends). [ ]: non-standard residue; d: D form. 2Nal = N[C@@H](Cc1ccc2ccccc2c1)C(=O)O; d2Nal = N[C@H](Cc1ccc2ccccc2c1)C(=O)O

Columns and labels:
endothelinA = target: T1, endothelinA (Rattus norvegicus, UniProt P26684); assay: EtA membrane receptor assay (A10 smooth muscle cells); format: binding; conditions: at 1 µM
T1 construct: A10 smooth muscle cells (EtA membrane receptor assay); endogenous in cells; host or cells: A10 smooth muscle cells (membranes)

β1-adrenergic = target: T2, β1-adrenergic (Homo sapiens, UniProt P08588); assay: beta1-adrenergic membrane receptor assay; format: binding; conditions: at 1 µM
T2 construct: receptors on plasma membranes on various tissues determined as described in METHODS; from tissue

NMB Receptor = target: T3, NMB Receptor (Rattus norvegicus, UniProt P24053); assay: [3H]inositol phosphates (IP) in NMB-R transfected cells; format: cell-based
T3 construct: a full length NMB-preferring bombesin receptor clone generated from rat esophagus; expressed in transfected cells; host or cells: BALB 3T3 cells
T3 sequence (P24053 1-390): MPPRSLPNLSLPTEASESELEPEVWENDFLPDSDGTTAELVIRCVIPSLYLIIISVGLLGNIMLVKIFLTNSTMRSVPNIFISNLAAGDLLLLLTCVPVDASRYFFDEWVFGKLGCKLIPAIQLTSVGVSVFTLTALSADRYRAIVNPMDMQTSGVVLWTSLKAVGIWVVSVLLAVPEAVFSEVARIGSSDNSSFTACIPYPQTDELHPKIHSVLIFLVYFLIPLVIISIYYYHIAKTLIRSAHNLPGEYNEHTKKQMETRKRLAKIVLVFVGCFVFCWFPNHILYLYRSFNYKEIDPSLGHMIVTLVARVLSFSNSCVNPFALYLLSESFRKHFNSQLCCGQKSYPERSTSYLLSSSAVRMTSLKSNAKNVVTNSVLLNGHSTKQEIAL
Procedure, shortened: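 BALB 3T3 cells stably expressing rat NMB receptor, labelled 48 h with myo-[2-3H]inositol, then 60 min at 37°C in LiCl-containing buffer with agonists, or with 3 nM NMB plus antagonists. Total [3H]IP isolated by anion-exchange chromatography.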

benzodiazepine-neural = assay: Neural benzodiazepine membrane receptor assay; format: binding, rat; conditions: at 1 µM
TRH receptor = assay: TRH membrane assay; format: binding, rat; conditions: at 1 µM
[1] = target: T4, NMB receptors on rat olfactory bulb membranes (Rattus norvegicus, UniProt P24053); assay: NMB membrane receptor assay (rat olfactory bulb membranes); format: binding
T4 construct: Membranes were prepared from rat olfactory bulb (NMB membrane receptor assay); from tissue; host or cells: rat olfactory bulb membranes
T4 sequence (P24053 1-390): T3 sequence (P24053 1-390)

muscarinic cholinergic = assay: Muscarinic cholinergic membrane receptor assay; format: binding, rat; conditions: at 1 µM
PYY receptor = assay: PYY membrane receptor assay; format: binding, rat; conditions: at 1 µM
CCKA receptors = target: T5, CCKA receptors (Rattus norvegicus, UniProt P30551); assay: CCKA receptor assay (125I-CCK-8, rat pancreatic membranes); format: binding; conditions: at 1 µM
T5 construct: rat pancreas (CCKA receptor assay); from tissue; host or cells: rat pancreatic membranes

[2] = target: T6, N-methyl D-aspartate receptors (Rattus norvegicus, UniProt P35439); assay: N-methyl-D-aspartate membrane receptor assay; format: binding; conditions: at 1 µM
T6 construct: from tissue; host or cells: rat cerebral cortex membranes

[3] = target: T7, benzodiazepine-peripheral receptor (Rattus norvegicus, UniProt P16257); assay: Peripheral benzodiazepine membrane receptor assay; format: binding; conditions: at 1 µM
T7 construct: rat cerebral cortex (CCKB, PYY, neurotensin, ∝1-adrenergic, ∝2-adrenergic, muscarinic cholinergic, neural benzodiazepine, peripheral benzodiazepine); from tissue; host or cells: rat cerebral cortex membranes

CCKB = target: T8, CCKB (Rattus norvegicus, UniProt P30553); assay: CCKB membrane receptor assay; format: binding; conditions: at 1 µM
T8 construct: rat cerebral cortex (CCKB, PYY, neurotensin); from tissue; host or cells: rat cerebral cortex membranes

histamine H1 = target: T9, histamine H1 (Cavia porcellus, UniProt P31389); assay: histamine H1 membrane receptor assay; format: binding, guinea pig; conditions: at 1 µM
T9 construct: guinea pig cerebral (N1, histamine H1, and sigma opioid membrane receptor assays); from tissue; host or cells: guinea pig cerebral membranes
T9 sequence (P31389 whole entry): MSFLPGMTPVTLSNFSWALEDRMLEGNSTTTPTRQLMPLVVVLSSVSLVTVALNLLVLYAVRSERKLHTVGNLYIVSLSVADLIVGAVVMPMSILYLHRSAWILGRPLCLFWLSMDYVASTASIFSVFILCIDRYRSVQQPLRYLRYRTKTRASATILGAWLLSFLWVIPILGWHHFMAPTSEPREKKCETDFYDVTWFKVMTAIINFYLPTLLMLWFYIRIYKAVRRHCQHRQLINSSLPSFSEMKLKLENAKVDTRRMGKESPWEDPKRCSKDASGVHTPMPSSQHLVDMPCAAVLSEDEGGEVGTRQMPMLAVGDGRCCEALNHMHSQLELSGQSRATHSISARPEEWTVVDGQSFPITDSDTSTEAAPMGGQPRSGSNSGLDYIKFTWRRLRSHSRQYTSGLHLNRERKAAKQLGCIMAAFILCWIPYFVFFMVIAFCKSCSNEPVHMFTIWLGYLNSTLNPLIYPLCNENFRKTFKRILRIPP

T2 sequence (P08588 whole entry): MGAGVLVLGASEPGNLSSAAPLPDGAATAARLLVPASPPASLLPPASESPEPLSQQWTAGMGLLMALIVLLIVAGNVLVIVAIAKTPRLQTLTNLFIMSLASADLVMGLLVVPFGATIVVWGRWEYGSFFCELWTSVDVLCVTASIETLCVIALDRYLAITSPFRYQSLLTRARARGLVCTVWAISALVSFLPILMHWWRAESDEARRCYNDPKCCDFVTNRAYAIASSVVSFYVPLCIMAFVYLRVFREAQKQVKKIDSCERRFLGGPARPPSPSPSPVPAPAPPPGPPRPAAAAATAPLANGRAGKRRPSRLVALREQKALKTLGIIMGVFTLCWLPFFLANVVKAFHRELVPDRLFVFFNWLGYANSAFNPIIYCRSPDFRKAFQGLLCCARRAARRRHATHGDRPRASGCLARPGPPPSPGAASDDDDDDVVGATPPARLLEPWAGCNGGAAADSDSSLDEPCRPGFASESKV
T7 sequence (P16257 whole entry): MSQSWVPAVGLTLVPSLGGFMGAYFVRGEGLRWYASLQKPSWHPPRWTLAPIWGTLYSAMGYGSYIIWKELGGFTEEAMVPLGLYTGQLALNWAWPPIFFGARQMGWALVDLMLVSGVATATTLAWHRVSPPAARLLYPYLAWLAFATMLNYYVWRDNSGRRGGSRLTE
T1 sequence (P26684 21-426): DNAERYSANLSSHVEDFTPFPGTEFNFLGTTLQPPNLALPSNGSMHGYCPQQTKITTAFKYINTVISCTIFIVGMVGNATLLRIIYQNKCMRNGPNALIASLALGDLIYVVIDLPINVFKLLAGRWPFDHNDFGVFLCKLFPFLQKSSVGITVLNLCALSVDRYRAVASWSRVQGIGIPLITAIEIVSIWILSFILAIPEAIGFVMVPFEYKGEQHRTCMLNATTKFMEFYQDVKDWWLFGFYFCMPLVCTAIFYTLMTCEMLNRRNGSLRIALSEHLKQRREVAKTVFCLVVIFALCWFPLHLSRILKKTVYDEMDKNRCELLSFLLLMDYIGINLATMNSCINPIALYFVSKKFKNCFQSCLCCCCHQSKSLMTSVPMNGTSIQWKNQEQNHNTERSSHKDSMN
T5 sequence (P30551 whole entry): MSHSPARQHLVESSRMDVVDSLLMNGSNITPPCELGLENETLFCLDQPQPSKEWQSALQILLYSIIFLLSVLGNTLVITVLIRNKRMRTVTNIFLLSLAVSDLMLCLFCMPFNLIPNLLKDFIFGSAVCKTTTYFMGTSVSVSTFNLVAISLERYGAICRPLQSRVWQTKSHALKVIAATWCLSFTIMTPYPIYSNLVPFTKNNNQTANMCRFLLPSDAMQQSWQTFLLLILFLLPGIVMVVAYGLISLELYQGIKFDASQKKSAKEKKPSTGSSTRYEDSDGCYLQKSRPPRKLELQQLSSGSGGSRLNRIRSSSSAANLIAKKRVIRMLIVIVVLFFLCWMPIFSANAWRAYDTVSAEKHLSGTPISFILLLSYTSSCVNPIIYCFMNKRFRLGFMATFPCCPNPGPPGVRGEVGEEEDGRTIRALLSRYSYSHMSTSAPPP
T8 sequence (P30553 whole entry): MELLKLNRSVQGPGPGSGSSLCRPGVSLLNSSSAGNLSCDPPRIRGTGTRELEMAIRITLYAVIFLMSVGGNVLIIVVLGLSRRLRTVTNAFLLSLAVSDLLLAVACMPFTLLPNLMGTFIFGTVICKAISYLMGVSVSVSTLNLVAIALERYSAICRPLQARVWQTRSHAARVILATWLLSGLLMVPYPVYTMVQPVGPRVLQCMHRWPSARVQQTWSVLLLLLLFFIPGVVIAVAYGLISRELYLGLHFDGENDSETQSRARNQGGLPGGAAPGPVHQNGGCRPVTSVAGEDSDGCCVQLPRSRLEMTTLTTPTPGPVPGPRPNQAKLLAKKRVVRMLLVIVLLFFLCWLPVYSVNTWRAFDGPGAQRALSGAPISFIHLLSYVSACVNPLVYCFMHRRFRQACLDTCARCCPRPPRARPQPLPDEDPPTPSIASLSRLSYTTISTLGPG

CC(C)[C@@H]1NC(=O)[C@H](CCCCN)NC(=O)[C@@H](Cc2c[nH]c3ccccc23)NC(=O)[C@H](Cc2ccc(O)cc2)NC(=O)[C@@H](NC(=O)[C@H](N)Cc2ccc3ccccc3c2)CSSC[C@@H](C(=O)N[C@@H](Cc2ccc3ccccc3c2)C(N)=O)NC1=O [Analog #1, D-Nal-Cys-Tyr-D-Trp-Lys-Val-Cys-Nal-NH2] (H-[d2Nal]CY[dW]KVC[2Nal]-NH2; disulfide 2-7; N-terminus assumed)
inhibition of binding to endothelinA (endothelinA): did not inhibit binding
inhibition of binding to β1-adrenergic (β1-adrenergic): did not inhibit binding
regression slope of Schild plot (NMB Receptor; 1, 3 or 10 µM cyclo SS-octa on NMB dose-response curve): 1.1(+0.2)
complete inhibition of NMB-stimulated increases in [^3H]IP at (NMB Receptor; NMB-R transfected cells): 10 µM
detectible inhibition of NMB-stimulated increases in [^3H]IP at (NMB Receptor; NMB-R transfected cells): 0.3 µM
effect on NMB-stimulated increase in [^3H]IP (NMB Receptor; NMB-R transfected cells, 3 nM NMB, peptide 10 µM): completely inhibited
NMB-R Transfected Cells [^3H]IP Alone (10 µ M) (NMB Receptor; analog 10 µM alone, no-additive control 13 ± 3): 12 ± 2 dpm x 10^3
NMB-R Transfected Cells [^3H]IP Plus NMB (3 nM) (NMB Receptor; analog 10 µM plus NMB 3 nM, NMB without analog 186 ± 58): 8 ± 4 dpm x 10^3
Kd (NMB Receptor; rightward shift of NMB dose-response curve, NMB-R transfected cells, read-out: affinity for the NMB receptor from Schild plot): 231 ± 43 nM
inhibition of binding to benzodiazepine-neural (benzodiazepine-neural): did not inhibit binding
inhibition of binding to TRH (TRH receptor): did not inhibit binding
inhibition at 1 µM ([1]; at 1 µM, read-out: inhibition of binding to NMB receptors on rat olfactory bulb membranes): > 95%
fold greater affinity for NMB receptors than mu opioid receptors ([1]; rat olfactory bulb versus rat forebrain membranes (Table 4)): 10 fold
inhibition of binding to muscarinic cholinergic (muscarinic cholinergic): did not inhibit binding
inhibition of binding to PYY (PYY receptor): did not inhibit binding
inhibition of binding to CCKA (CCKA receptors): did not inhibit binding
inhibition of binding to N-methyl D-aspartate receptors [2]: did not inhibit binding
inhibition of binding to benzodiazepine peripheral [3]: did not inhibit binding
inhibition of binding to CCKB (CCKB): did not inhibit binding
inhibition of binding to histamine H1 (histamine H1): did not inhibit binding
